The values that follow come from patent US4524206A, “1-Heteroaryl-4-(2,5-pyrrolidinedion-1-yl)alkyl)piperazine derivatives” (Mead Johnson & Company, priority 1983, dated 1985).

The assay can be described thus: pharmacological profile from the in vivo screening tests and in vitro receptor binding (tranquilizing profile). As to conditions: potential indicated by test profile. An excerpt:
The following in vivo screening tests were utilized as the basis to determine the tranquilizing profile and potential side-effect liabilities of the instant compounds.
As further indication of the psychotropic activity and specificity of the instant compounds, state of the art in vitro central nervous system receptor binding methodology can be employed. […] Inhibition of radiolabeled ligand binding to such specific high affinity sites is considered a measure of a compound's ability to affect corresponding central nervous system functions or cause side effects in vivo. This principle is employed in the following in vitro assay which is given by way of example.
Another test predictive of side effects measures protection against norepinephrine lethality. This procedure essentially relates to alpha-block and the unwanted side effects which accompany it, such as sedation and blood pressure lowering.
For the compound “3-(4-Fluorophenyl)-3-methyl-1-[4-[4-(2-pyrimidinyl)-1-piperazinyl]butyl]-2,5-pyrrolidinedione [Example 7]”, the pharmacological profile result is recorded as “potential non-dopaminergic antipsychotic activity”.

With `O=C1CC(c2ccccc2)(c2ccccc2)C(=O)N1CCCCN1CCN(c2ncccn2)CC1` [Example 9, 3,3-Diphenyl-1-[4-[4-(2-pyrimidinyl)-1-piperazinyl]butyl]-2,5-pyrrolidinedione], the pharmacological profile entry is on record as “selective anxiolytic potential”. Then `O=C1CC2(CCc3ccccc3C2)C(=O)N1CCCCN1CCN(c2ncccn2)CC1` (stereo not drawn) [Example 16, 1'-[4-[4-(2-Pyrimidinyl)-1-piperazinyl]butyl]spiro[1,2,3,4-tetrahydronaphthalene-2,3'-pyrrolidine-2',5'-dione]], with “selective anxiolytic potential”.
